Assay results: ChEMBL document CHEMBL4402510, “Caprazamycins: Promising lead structures acting on a novel antibacterial target MraY” (Eur J Med Chem, 2019)
pIC50: −log10 of the molar value. Converted amounts (≈) assume the structure as drawn.

Columns and labels:
Pseudomonas aeruginosa [1] = assay: Antibacterial activity against Pseudomonas aeruginosa PAO1 deltamexB; assay type: functional
Pseudomonas aeruginosa [2] = assay: Antibacterial activity against Pseudomonas aeruginosa YY165; assay type: functional
Acinetobacter baumannii = assay: Antibacterial activity against Acinetobacter baumannii ATCC 19606; assay type: functional; settings: ATCC 19606 = CIP 70.34 = JCM 6841
Haemophilus influenzae [3] = assay: Antibacterial activity against Haemophilus influenzae ATCC 10211; assay type: functional
Enterococcus faecalis [4] = assay: Antibacterial activity against Enterococcus faecalis SR7914 (VRE); assay type: functional
[5] = target: T1, Phospho-N-acetylmuramoyl-pentapeptide-transferase (Staphylococcus aureus, UniProt P0C1R8); assay: Inhibition of MraY in Staphylococcus aureus
T1 sequence (P0C1R8 whole entry): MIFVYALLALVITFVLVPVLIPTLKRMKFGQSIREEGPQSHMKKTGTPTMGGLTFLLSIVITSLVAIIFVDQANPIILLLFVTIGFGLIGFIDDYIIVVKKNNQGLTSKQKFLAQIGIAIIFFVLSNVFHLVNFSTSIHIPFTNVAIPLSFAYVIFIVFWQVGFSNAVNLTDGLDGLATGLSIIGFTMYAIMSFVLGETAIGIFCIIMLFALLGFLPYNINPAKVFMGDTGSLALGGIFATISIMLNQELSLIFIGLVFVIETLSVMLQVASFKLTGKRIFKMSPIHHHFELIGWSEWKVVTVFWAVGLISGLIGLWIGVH

Enterococcus faecalis [6] = assay: Antibacterial activity against Enterococcus faecalis ATCC 29212; assay type: functional
Staphylococcus aureus [7] = assay: Antibacterial activity against methicillin susceptible Staphylococcus aureus ATCC 29213; assay type: functional
Enterococcus faecium [8] = assay: Antibacterial activity against Enterococcus faecium SR7917 (VRE); assay type: functional
Escherichia coli [9] = assay: Antibacterial activity against Escherichia coli ATCC 25922; assay type: functional
Staphylococcus aureus [10] = assay: Antibacterial activity against methicillin resistant Staphylococcus aureus SR3637; assay type: functional
Streptococcus pneumoniae = assay: Antibacterial activity against Streptococcus pneumoniae; assay type: functional
Enterococcus faecium [11] = assay: Antibacterial activity against Enterococcus faecium ATCC 19434; assay type: functional
Haemophilus influenzae [12] = assay: Antibacterial activity against Haemophilus influenzae after 20 hrs by NCCLS-based two-fold broth dilution method; assay type: functional
Enterococcus faecalis [13] = assay: Antibacterial activity against t Enterococcus faecalis after 20 hrs by NCCLS-based two-fold broth dilution method; assay type: functional; settings: read-out: MIC
Enterococcus faecalis [14] = assay: Antibacterial activity against t Enterococcus faecalis VRE after 20 hrs by NCCLS-based two-fold broth dilution method; assay type: functional; settings: read-out: MIC
Escherichia coli [15] = assay: Antibacterial activity against Escherichia coli after 20 hrs by NCCLS-based two-fold broth dilution method; assay type: functional
Staphylococcus aureus [16] = assay: Antibacterial activity against methicillin susceptible Staphylococcus aureus after 20 hrs by NCCLS-based two-fold broth dilution method; assay type: functional; settings: read-out: MIC
Staphylococcus aureus [17] = assay: Antibacterial activity against methicillin resistant Staphylococcus aureus after 20 hrs by NCCLS-based two-fold broth dilution method; assay type: functional; settings: read-out: MIC
Enterococcus faecium [18] = assay: Antibacterial activity against t Enterococcus faecium after 20 hrs by NCCLS-based two-fold broth dilution method; assay type: functional
Enterococcus faecium [19] = assay: Antibacterial activity against t Enterococcus faecium VRE after 20 hrs by NCCLS-based two-fold broth dilution method; assay type: functional; settings: read-out: MIC
[20] = test system: Mycobacterium intracellulare; assay: Antibacterial activity against Mycobacterium intracellulare; assay type: functional
Mycobacterium avium = assay: Antibacterial activity against Mycobacterium avium; assay type: functional
[21] = test system: Mycolicibacterium smegmatis; assay: Antibacterial activity against Mycobacterium smegmatis; assay type: functional
[22] = test system: Mycobacterium tuberculosis; assay: Antibacterial activity against Mycobacterium tuberculosis; assay type: functional

Structure (SMILES) | MIC (Pseudomonas aeruginosa [1]) [µg/mL] | MIC (Pseudomonas aeruginosa [2]) [µg/mL] | MIC (Acinetobacter baumannii) [µg/mL] | MIC (Haemophilus influenzae [3]) [µg/mL] | MIC (Enterococcus faecalis [4]) [µg/mL] | pIC50 [5] | MIC (Enterococcus faecalis [6]) [µg/mL] | MIC (Staphylococcus aureus [7]) [µg/mL] | MIC (Enterococcus faecium [8]) [µg/mL] | MIC (Escherichia coli [9]) [µg/mL] | MIC (Staphylococcus aureus [10]) [µg/mL] | MIC (Streptococcus pneumoniae) [µg/mL] | MIC (Enterococcus faecium [11]) [µg/mL] | MIC (Enterococcus faecalis [13]) [µg/mL] | MIC (Enterococcus faecalis [14]) [µg/mL] | other results
CC(=O)N[C@H]1CCN[C@H]([C@H](O[C@@H]2O[C@H](CN)[C@@H](O)[C@H]2O)[C@H]2O[C@@H](n3ccc(=O)[nH]c3=O)[C@H](O)[C@@H]2O)C1 | > 64 | > 64 | > 64 | > 64 | > 64 | 2.40 | > 64 | > 64 | > 64 | > 64 | > 64 | > 64 | > 64 | – | – | –
CCCCCCCCCCCCCCCC(=O)OC[C@H]1[C@@H](C(=O)N(C)C)[C@H]([C@H]2O[C@@H](n3ccc(=O)[nH]c3=O)[C@H](O)[C@@H]2O)ON1CCCN | – | – | – | 1 (≈ 1.47 µM) | – | – | – | – | – | – | – | – | – | – | – | MIC (Haemophilus influenzae [12]): 1 µg/mL (≈ 1.47 µM)
CCCCCCCCCCCCCCCC(=O)OC[C@@H]1[C@H](C(N)=O)[C@H]([C@H]2O[C@@H](n3ccc(=O)[nH]c3=O)[C@H](O)[C@@H]2O)ON1CCCN | – | – | – | – | – | – | – | – | – | – | – | – | – | 16 (≈ 24.5 µM) | 4 to 8 (≈ 6.12 to 12.2 µM) | MIC (Haemophilus influenzae [12]): 0.25 to 0.5 µg/mL (≈ 0.382 to 0.765 µM)
CCCCCCCCCCCCCCCC(=O)N[C@@H]1CCN[C@@H]([C@@H](O[C@@H]2O[C@H](CN)[C@@H](O)[C@H]2O)[C@H]2O[C@@H](n3ccc(=O)[nH]c3=O)[C@H](O)[C@@H]2O)C1 | > 64 | > 64 | > 64 | > 64 | 32 (≈ 45 µM) | < 2.57 | 32 (≈ 45 µM) | 16 (≈ 22.5 µM) | 16 (≈ 22.5 µM) | 32 (≈ 45 µM) | 32 (≈ 45 µM) | 64 (≈ 89.9 µM) | 32 (≈ 45 µM) | 32 (≈ 45 µM) | 32 (≈ 45 µM) | MIC (Escherichia coli [15]): 32 µg/mL (≈ 45 µM); MIC (Staphylococcus aureus [16]): 16 µg/mL (≈ 22.5 µM); MIC (Staphylococcus aureus [17]): 32 µg/mL (≈ 45 µM); MIC (Enterococcus faecium [18]): 32 µg/mL (≈ 45 µM); MIC (Enterococcus faecium [19]): 16 µg/mL (≈ 22.5 µM)
CCCCCCCCCCCCCCCCC[C@@H]1CN[C@@H]([C@H](O[C@@H]2O[C@H](CN)[C@@H](O)[C@H]2O)[C@H]2O[C@@H](n3ccc(=O)[nH]c3=O)[C@H](O)[C@@H]2O)C(=O)N(C)[C@@H]1C(=O)O | – | – | – | – | 16 (≈ 20.4 µM) | – | 8 (≈ 10.2 µM) | 8 (≈ 10.2 µM) | 16 (≈ 20.4 µM) | – | 8 (≈ 10.2 µM) | – | 8 (≈ 10.2 µM) | 4 (≈ 5.1 µM) | 8 (≈ 10.2 µM) | MIC (Staphylococcus aureus [16]): 4 µg/mL (≈ 5.1 µM); MIC (Staphylococcus aureus [17]): 4 µg/mL (≈ 5.1 µM); MIC (Enterococcus faecium [18]): 8 µg/mL (≈ 10.2 µM); MIC (Enterococcus faecium [19]): 8 µg/mL (≈ 10.2 µM)
CCCCCCCCCCCC[C@@H](CC(=O)O[C@H]1CN(C)[C@@H]([C@H](O[C@@H]2O[C@H](CN)[C@@H](O)[C@H]2O)[C@H]2O[C@@H](n3ccc(=O)[nH]c3=O)[C@H](O)[C@@H]2O)C(=O)N(C)[C@@H]1C(=O)O)OC(=O)C[C@H](C)CC(=O)O[C@@H]1O[C@@H](C)[C@H](OC)[C@@H](OC)[C@H]1OC | – | – | – | – | – | – | – | – | – | – | – | – | – | – | – | MIC [20]: 0.78 µg/mL (≈ 0.689 µM); MIC (Mycobacterium avium): < 0.025 µg/mL; MIC [21]: 0.78 to 1.56 µg/mL (≈ 0.689 to 1.38 µM); MIC [22]: 0.78 µg/mL (≈ 0.689 µM)
CO[C@@H]1[C@@H](OC)[C@H](C)O[C@@H](OC(=O)C[C@@H](C)CC(=O)O[C@@H](CCCCCCCCC(C)C)CC(=O)O[C@H]2CN(C)[C@@H]([C@H](O[C@@H]3O[C@H](CN)[C@@H](O)[C@H]3O)[C@H]3O[C@@H](n4ccc(=O)[nH]c4=O)[C@H](O)[C@@H]3O)C(=O)N(C)[C@@H]2C(=O)O)[C@@H]1OC | – | – | – | – | – | – | – | – | – | – | – | – | – | – | – | MIC [20]: 1.56 µg/mL (≈ 1.4 µM); MIC (Mycobacterium avium): 0.1 µg/mL (≈ 0.0894 µM); MIC [21]: 0.78 to 1.56 µg/mL (≈ 0.698 to 1.4 µM); MIC [22]: 1.56 µg/mL (≈ 1.4 µM)
CC(=O)N[C@H]1CCN[C@H]([C@@H](O[C@@H]2O[C@H](CN)[C@@H](O)[C@H]2O)[C@H]2O[C@@H](n3ccc(=O)[nH]c3=O)[C@H](O)[C@@H]2O)C1 | > 64 | > 64 | > 64 | > 64 | > 64 | < 2.38 | > 64 | > 64 | > 64 | > 64 | > 64 | > 64 | > 64 | – | – | –
